Results taken from patent US7766979B2, “Phase transformation in molecular solids” (Avantium International B.V., priority 2004, dated 2010).
Like-named read-outs stand apart in the source and are kept apart here.

Legend:
[1] = cited from earlier work; for phase transformation under mechanical stress (grinding, pressure): conventional grinding or pressure, literature
[2] = tribochemical treatment (high-energy grinding) with phase detection by X-ray powder diffractometry; type: physicochemical; details: for phase transformation achieved by the process (summary statement): Fritsch Pulverisette 7, hardened steel, as a solid
Description: The detection of the particular modification/form was conducted with X-ray powder diffractometry: X-ray diffractometer: SToe STADI P transmission diffractometer, CuKα1: 1.54060 Å, linear position-sensitive detector, measurement range 5-40°2Theta, step width 0.01°2Theta, measurement time 960 sec/step.
High-energy mill: Fritsch Pulverisette 7;
Grinding cup: hardened steel, volume 10 ml; […]
Temperature control: no temperature control […]
Amount of substance: 1.0 g

[3] = cited from earlier work; for temperature of conversion to the other polymorph: on heating
[4] = compared with form 1; cited from earlier work

For CCCNC(=O)NS(=O)(=O)c1ccc(Cl)cc1 [Chlorpropamide form A, Chlorpropamide], the “phase transformation under mechanical stress (grinding, pressure)” value (“phase transformation … (grinding, pressure)” below) ([1]; listed as form A) is given as “detectable phase transformations under none of the mechanical stresses listed”, the “phase found after tribochemical treatment” value (“phase found” for short) ([2]; Experiment 3.1: 1.0 g, 800 rpm, 1 hour) is given as “partial transformation to form C” and the “phase transformation achieved by the process (summary statement)” value (“phase transformation achieved” for short) ([2]; listed as form A) is given as “partly to form C”.
In the case of CCCNC(=O)NS(=O)(=O)c1ccc(Cl)cc1 [Chlorpropamide form C, Chlorpropamide], the “phase transformation … (grinding, pressure)” value ([1]; listed as form C) is listed as “partial phase transformation to form A”, the “phase found” value ([2]; Experiment 3.2: 1.0 g, 800 rpm, 15 minutes) is listed as “clearly perceptible incipient transformation to form A” and the “phase found” value ([2]; Experiment 3.3: 1.0 g, 800 rpm, 60 minutes) is listed as “transformed fully to form A”. The “phase transformation achieved” value ([2]; listed as form C) was “fully to form A” and the “thermodynamic stability of the phase” value ([3]; at room temperature (acetazolamide)) was “metastable”.
In the case of CC(=O)Nc1nnc(S(N)(=O)=O)s1 [polymorph 1 of acetazolamide, 5-Acetamido-1,3,4-thiadiazole-2-sulfonamide], the “phase transformation … (grinding, pressure)” value ([1]; listed as polymorph 1) is listed as “not converted back to polymorph 2” and the “storage period without conversion back to polymorph 2” value ([1]; storage) is listed as “over 5 years”.
In the case of CC(=O)Nc1nnc(S(N)(=O)=O)s1 [polymorph 2 of acetazolamide, 5-Acetamido-1,3,4-thiadiazole-2-sulfonamide], the “phase transformation … (grinding, pressure)” value ([1]; listed as polymorph 2) is given as “Nor has the transformation of polymorph 2 to polymorph 1 under mechanical stress been observed”, the “phase found” value ([2]; Experiment 2.1: 1.0 g, 800 rpm, 1 hour) is given as “converted virtually fully to polymorph 1” and the “phase found” value ([2]; Experiment 2.2: 1.0 g, 800 rpm, 5 minutes) is given as “attributable to the polymorph 2 used”. For the same molecule, the “phase found” value ([2]; Experiment 2.3: 1.0 g, 800 rpm, 30 minutes) was “polymorph 1 is isolated”, the “phase found” value ([2]; Experiment 2.4: 1.0 g, 800 rpm, 45 minutes) was “polymorph 1 is likewise isolated” and the “phase found” value ([2]; Experiment 2.5: 1.0 g, 400 rpm, 30 minutes) was “attributable to the polymorph 2 used”. The “phase found” value ([2]; Experiment 2.6: 1.0 g, 400 rpm, 60 minutes) was “no phase transformation is observed”, the “phase transformation achieved” value [2] was “virtually full transformation of polymorph 2 to polymorph 1” and the “temperature of conversion to the other polymorph” value [3] was 120-148 °C.
For Cc1ccnc(NS(=O)(=O)c2ccc(N)cc2)n1 [sulfamerazine form 1, 2-Sulfanilamido-4-methylpyrimidine], the “phase transformation … (grinding, pressure)” value [1] is given as “neither polymorphic form undergoes a transformation”, the “phase found” value ([2]; Example 1.1: 1.0 g, normal atmosphere, 800 rpm, 1 hour, no temperature control) is given as “Virtually full conversion of form 1 to the desired form 2” and the “phase found” value ([2]; Example 1.2: 1.0 g, normal atmosphere, 800 rpm, 5 minutes) is given as “still attributable to form 1”. For the same molecule, the “phase found” value ([2]; Example 1.3: 1.0 g, normal atmosphere, 800 rpm, 15 minutes) was “still attributable to form 1”, the “phase found” value ([2]; Example 1.4: 1.0 g, normal atmosphere, 800 rpm, 30 min) was “all of which are attributable to form 2” and the “phase found” value ([2]; Example 1.5: 10.0 g, 7 balls, 40 ml grinding cup, 800 rpm, 15 minutes) was “those of form 1”. The “phase found” value ([2]; Example 1.6: 10.0 g, 7 balls, 40 ml grinding cup, 800 rpm, 30 min) was “all of which are attributable to form 2”, the “phase found” value ([2]; Example 1.7: 15.0 g, 2 balls, 40 ml grinding cup, 800 rpm, 120 and 180 min) was “formation of form 2” and the “phase transformation achieved” value [2] was “fully to form 2”.
In the case of Cc1ccnc(NS(=O)(=O)c2ccc(N)cc2)n1 [sulfamerazine form 2, 2-Sulfanilamido-4-methylpyrimidine], the hygroscopicity [4] is listed as “less hygroscopic”, the “release of the active ingredient” value [4] is listed as “releases the sulfamerazine better” and the “temperature of conversion to the other polymorph” value [3] is listed as “about 170 °C”.
